Assay results as given in patent US11292783B2, “Substituted 1,2,3,4-tetrahydroisoquinolines as kappa opioid antagonists” (Research Triangle Institute, priority 2016, dated 2022).
Where two headings read alike, the source gives them in different places.

Legend:
Type in all cases: biochemical
μ opioid receptor = molecular target: T1, μ opioid receptor (Homo sapiens, UniProt P35372); assay: Inhibition of DAMGO-stimulated [35S]GTPγS binding
T1 construct: expressed in transfected cells

κ opioid receptor = molecular target: T2, κ opioid receptor (Homo sapiens, UniProt P41145); assay: Inhibition of U69,593-stimulated [35S]GTPγS binding; settings: for δ/κ (selectivity for κ relative to δ): ratio of Ke values δ/κ; for δ/κ (selectivity for κ relative to δ) / μ/κ (selectivity for κ relative to μ): fold; for μ/κ (selectivity for κ relative to μ): ratio of Ke values μ/κ
T2 construct: expressed in transfected cells
T2 sequence (P41145 whole entry): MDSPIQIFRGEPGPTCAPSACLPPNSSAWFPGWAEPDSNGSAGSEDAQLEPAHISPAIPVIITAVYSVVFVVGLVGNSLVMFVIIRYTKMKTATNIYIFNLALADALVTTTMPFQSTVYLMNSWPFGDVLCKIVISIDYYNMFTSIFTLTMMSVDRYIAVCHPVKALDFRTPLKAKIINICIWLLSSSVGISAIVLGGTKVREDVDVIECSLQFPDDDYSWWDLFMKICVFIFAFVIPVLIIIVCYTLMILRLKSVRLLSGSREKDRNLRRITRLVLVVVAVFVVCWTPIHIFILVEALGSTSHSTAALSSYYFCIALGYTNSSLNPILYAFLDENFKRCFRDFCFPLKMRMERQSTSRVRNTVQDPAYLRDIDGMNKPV

δ opioid receptor = molecular target: T3, δ opioid receptor (Homo sapiens, UniProt P41143); assay: Inhibition of DPDPE-stimulated [35S]GTPγS binding
T3 construct: expressed in transfected cells
T3 sequence (P41143 whole entry): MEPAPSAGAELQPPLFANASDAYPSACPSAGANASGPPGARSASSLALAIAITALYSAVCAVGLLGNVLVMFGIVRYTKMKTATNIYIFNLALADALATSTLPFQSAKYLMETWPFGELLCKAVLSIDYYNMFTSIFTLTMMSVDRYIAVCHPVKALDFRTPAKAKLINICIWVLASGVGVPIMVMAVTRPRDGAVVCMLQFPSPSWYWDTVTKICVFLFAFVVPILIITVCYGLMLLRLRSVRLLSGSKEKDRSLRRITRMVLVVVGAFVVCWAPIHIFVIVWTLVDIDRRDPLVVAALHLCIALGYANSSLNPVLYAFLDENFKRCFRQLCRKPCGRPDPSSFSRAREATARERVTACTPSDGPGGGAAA

[1] = cloned human μ receptor, agonist DAMGO, [35S]GTPγS binding, read-out: μ, DAMGO Ke
[2] = cloned human κ receptor, agonist U69,593, [35S]GTPγS binding, read-out: κ, U69,593 Ke
[3] = cloned human δ receptor, agonist DPDPE, [35S]GTPγS binding, read-out: δ, DPDPE Ke

T1 sequence (P35372 whole entry): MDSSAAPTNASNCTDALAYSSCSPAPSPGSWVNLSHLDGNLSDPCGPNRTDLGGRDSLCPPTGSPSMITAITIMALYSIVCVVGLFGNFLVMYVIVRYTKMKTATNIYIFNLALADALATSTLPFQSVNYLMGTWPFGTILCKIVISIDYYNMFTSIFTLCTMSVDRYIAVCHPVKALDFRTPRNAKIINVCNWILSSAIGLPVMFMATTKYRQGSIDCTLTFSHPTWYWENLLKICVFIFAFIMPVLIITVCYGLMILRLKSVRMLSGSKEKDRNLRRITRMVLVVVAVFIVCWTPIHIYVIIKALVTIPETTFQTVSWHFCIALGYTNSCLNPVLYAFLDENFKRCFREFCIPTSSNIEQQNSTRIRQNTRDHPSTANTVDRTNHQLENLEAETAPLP

CC1CCC(C[C@@H](NC(=O)[C@H]2Cc3ccc(O)cc3CN2)C(C)C)CC1 (stereo partly drawn) [Compound 66, (3R)-7-Hydroxy-N-{(1R)-2-methyl-1-[(4-methylcyclohexyl)methyl]propyl}-1,2,3,4-tetrahydroisoquinoline-3-carboxamide]
Kb (μ opioid receptor; [1]): 0.221 ± 0.041 µM

CC(C)[C@@H](CN1CCC(N(C)C)CC1)NC(=O)[C@H]1Cc2ccc(O)cc2CN1 [Compound 58, (3R)—N-[(1S)-1-{[4-(Dimethylamino)piperidin-1-yl]methyl}-2-methylpropyl]-7-hydroxy-1,2,3,4-tetrahydroisoquinoline-3-carboxamide]
Kb (κ opioid receptor; [2]): 0.00808 ± 0.0012 µM | δ/κ (selectivity for κ relative to δ) (κ opioid receptor): >371 | μ/κ (selectivity for κ relative to μ) (κ opioid receptor): 39 | Kb (μ opioid receptor; [1]): 0.318 ± 0.0084 µM

CC(C)[C@@H](CO)NC(=O)[C@H]1Cc2ccc(O)cc2CN1 [Compound 4, (3R)-7-Hydroxy-N-[(1S)-1-(hydroxymethyl)-2-methylpropyl]-1,2,3,4-tetrahydroisoquinoline-3-carboxamide]
δ/κ (selectivity for κ relative to δ) (κ opioid receptor): >76 | μ/κ (selectivity for κ relative to μ) (κ opioid receptor): >76 | Kb (κ opioid receptor; κ, U69,593 Ke, cloned human κ receptor, agonist U69,593, [35S]GTPγS binding): 0.0391 ± 0.0038 µM | Kb (μ opioid receptor): > 3 µM | Kb (δ opioid receptor): > 3 µM

CC(C)[C@@H](CN1CCC(C(F)F)CC1)NC(=O)[C@H]1Cc2ccc(O)cc2CN1 [Compound 59, (3R)—N-[(1S)-1-{[4-(Difluoromethyl)piperidin-1-yl]methyl}-2-methylpropyl]-7-hydroxy-1,2,3,4-tetrahydroisoquinoline-3-carboxamide]
Kb (κ opioid receptor; [2]): 0.00345 ± 0.0012 µM | Kb (μ opioid receptor; [1]): 0.0709 ± 0.0094 µM

CC(C)[C@@H](CN1CCC(C(F)(F)F)CC1)NC(=O)[C@H]1Cc2ccc(O)cc2CN1 [Compound 14, (3R)-7-Hydroxy-N-[(1S)-2-methyl-1-{[4-(trifluoromethyl)piperidin-1-yl]methyl}propyl]-1,2,3,4-tetrahydroisoquinoline-3-carboxamide]
Kb (κ opioid receptor; [2]): 0.00469 ± 0.00029 µM | δ/κ (selectivity for κ relative to δ) (κ opioid receptor): >640 | μ/κ (selectivity for κ relative to μ) (κ opioid receptor): 14 | Kb (μ opioid receptor; [1]): 0.0679 ± 0.012 µM

CC1CCN(C[C@H](C(C)C)N(C)C[C@H]2Cc3ccc(O)cc3CN2)CC1 [Compound 53, (3R)-3-[(Methyl{(1S)-2-methyl-1-[(4-methylpiperidin-1-yl)methyl]propyl}amino)methyl]-1,2,3,4-tetrahydroisoquinolin-7-ol]
Kb (κ opioid receptor; [2]): 0.0184 ± 0.002 µM | δ/κ (selectivity for κ relative to δ) (κ opioid receptor): >163 | μ/κ (selectivity for κ relative to μ) (κ opioid receptor): 35 | Kb (μ opioid receptor): 0.647 ± 0.15 µM | Kb (δ opioid receptor; [3]): > 3 µM

CC(C)[C@@H](CN1CCCCC1C)NC(=O)[C@H]1Cc2ccc(O)cc2CN1 (stereo partly drawn) [Compound 12, (3R)-7-Hydroxy-N-{(1S)-2-methyl-1-[(2-methylpiperidin-1-yl)methyl]propyl}-1,2,3,4-tetrahydroisoquinoline-3-carboxamide]
Kb (κ opioid receptor; [2]): 0.0151 ± 0.0042 µM | δ/κ (selectivity for κ relative to δ) (κ opioid receptor): 199 | μ/κ (selectivity for κ relative to μ) (κ opioid receptor): 3 | Kb (μ opioid receptor; [1]): 0.0449 ± 0.011 µM

CC(C)[C@@H](CC1CCCC1)NC(=O)[C@H]1Cc2ccc(O)cc2CN1 [Compound 40, (3R)—N-[(1R)-1-(Cyclopentylmethyl)-2-methylpropyl]-7-hydroxy-1,2,3,4-tetrahydroisoquinoline-3-carboxamide]
Kb (μ opioid receptor; [1]): 0.344 ± 0.1 µM | Kb (δ opioid receptor; [3]): 1.57 ± 0.38 µM

COC1CCN(C[C@@H](NC(=O)[C@H]2Cc3ccc(O)cc3CN2)C(C)C)CC1 [Compound 13, (3R)-7-Hydroxy-N-{(1S)-2-methyl-1-[(4-methoxypiperidin-1-yl)methyl]propyl}-1,2,3,4-tetrahydroisoquinoline-3-carboxamide]
Kb (κ opioid receptor; [2]): 0.00653 ± 0.0018 µM | δ/κ (selectivity for κ relative to δ) (κ opioid receptor): >459 | μ/κ (selectivity for κ relative to μ) (κ opioid receptor): 30 | Kb (μ opioid receptor; [1]): 0.198 ± 0.048 µM

CC1CCN(C[C@H](C(C)C)N(C)C(=O)[C@H]2Cc3ccc(O)cc3CN2)CC1 [Compound 30, (3R)-7-Hydroxy-N-methyl-N-{(1S)-2-methyl-1-[(4-methylpiperidin-1-yl)methyl]propyl}-1,2,3,4-tetrahydroisoquinoline-3-carboxamide]
Kb (κ opioid receptor; [2]): 0.0884 ± 0.017 µM | δ/κ (selectivity for κ relative to δ) (κ opioid receptor): 34 | μ/κ (selectivity for κ relative to μ) (κ opioid receptor): 4.6 | Kb (μ opioid receptor): 0.406 ± 0.086 µM | Kb (δ opioid receptor; [3]): > 3 µM

CC(C)[C@@H](CN1CCC(C#N)CC1)NC(=O)[C@H]1Cc2ccc(O)cc2CN1 [Compound 39, (3R)—N-{(1S)-1-[(4-Cyanopiperidin-1-yl)methyl]-2-methylprolyl}-7-hydroxy-1,2,3,4-tetrahydroisoquinoline-3-carboxamide]
Kb (κ opioid receptor; [2]): 0.0127 ± 0.0031 µM | δ/κ (selectivity for κ relative to δ) (κ opioid receptor): >236 | μ/κ (selectivity for κ relative to μ) (κ opioid receptor): 51 | Kb (μ opioid receptor; [1]): 0.647 ± 0.15 µM

CC(C)[C@@H](CN1CCCCC1)NC(=O)[C@H]1Cc2ccc(O)cc2CN1 [Compound 3, (3R)-7-Hydroxy-N-[(1S)-2-methyl-1-(piperidin-1-ylmethyl)propyl]-1,2,3,4-tetrahydroisoquinoline-3-carboxamide]
Kb (δ opioid receptor): > 3 µM

CC(C)[C@@H](CN1CCC(C)(C)CC1)NC(=O)[C@H]1Cc2ccc(O)cc2CN1 [Compound 9, (3R)—N-{(1S)-1-[(4,4-Dimethylpiperidin-1-yl)methyl]-2-methylpropyl}-7-hydroxy-1,2,3,4-tetrahydroisoquinoline-3-carboxamide]
Kb (κ opioid receptor; [2]): 0.00209 ± 0.00042 µM | δ/κ (selectivity for κ relative to δ) (κ opioid receptor): 405 | μ/κ (selectivity for κ relative to μ) (κ opioid receptor): 68 | Kb (μ opioid receptor; [1]): 0.142 µM | Kb (δ opioid receptor; [3]): 0.847 µM

CC(C)[C@@H](CN1CCOCC1)NC(=O)[C@H]1Cc2ccc(O)cc2CN1 [Compound 5, (3R)-7-Hydroxy-N-[(1S)-2-methyl-1-(morpholin-4-ylmethyl)propyl]-1,2,3,4-tetrahydroisoquinoline-3-carboxamide]
Kb (κ opioid receptor; [2]): 0.396 ± 0.14 µM

CC(C)[C@@H](CN1CCN(C)CC1)NC(=O)[C@H]1Cc2ccc(O)cc2CN1 [Compound 19, (3R)-7-Hydroxy-N-{(1S)-2-methyl-1-[(4-methylpiperizin-1-yl)methyl]propyl}-1,2,3,4-tetrahydroisoquinoline-3-carboxamide]
Kb (κ opioid receptor; [2]): 0.0988 ± 0.028 µM | δ/κ (selectivity for κ relative to δ) (κ opioid receptor): >333 | μ/κ (selectivity for κ relative to μ) (κ opioid receptor): 9 | Kb (μ opioid receptor; [1]): 0.915 ± 0.303 µM

CCC1CCN(C[C@@H](NC(=O)[C@H]2Cc3ccc(O)cc3CN2)C(C)C)CC1 [Compound 24, (3R)—N-{(1S)-1-[(4-Ethylpiperidin-1-yl)methyl]-2-methylpropyl}-7-hydroxy-1,2,3,4-tetrahydroisoquinoline-3-carboxamide]
Kb (κ opioid receptor; [2]): 0.00248 ± 0.0007 µM | δ/κ (selectivity for κ relative to δ) (κ opioid receptor): 1004 | μ/κ (selectivity for κ relative to μ) (κ opioid receptor): 30 | Kb (μ opioid receptor; [1]): 0.0748 ± 0.023 µM | Kb (δ opioid receptor; [3]): 2.49 ± 0.62 µM

O=C(NCCc1ccccc1)[C@H]1Cc2ccc(O)cc2CN1 [Compound 56, (3R)-7-Hydroxy-N-(2-phenylethyl)-1,2,3,4-tetrahydroisoquinoline-3-carboxamide]
Kb (μ opioid receptor): 0.277 ± 0.077 µM | Kb (δ opioid receptor; [3]): > 3 µM

CC(C)[C@@H](CN1CCC(C(N)=O)CC1)NC(=O)[C@H]1Cc2ccc(O)cc2CN1 [Compound 22]
Kb (κ opioid receptor; [2]): 0.00322 ± 0.00078 µM | δ/κ (selectivity for κ relative to δ) (κ opioid receptor): 932 | μ/κ (selectivity for κ relative to μ) (κ opioid receptor): 43 | Kb (μ opioid receptor; [1]): 0.129 ± 0.026 µM

CCN(CC)C[C@@H](NC(=O)[C@H]1Cc2ccc(O)cc2CN1)C(C)C [Compound 11, (3R)—N-{(1S)-1-[(4,4-Diethylamino)methyl]-2-methylpropyl]-7-hydroxy-1,2,3,4-tetrahydroisoquinoline-3-carboxamide]
κ, U69,593 Ke (κ opioid receptor; cloned human κ receptor, agonist U69,593, [35S]GTPγS binding): 41.8 ± 12 nM | δ/κ (selectivity for κ relative to δ) (κ opioid receptor): >72 | μ/κ (selectivity for κ relative to μ) (κ opioid receptor): 16.5 | μ, DAMGO Ke (μ opioid receptor; cloned human μ receptor, agonist DAMGO, [35S]GTPγS binding): 690 ± 110 nM | Kb (δ opioid receptor; [3]): >3 µM

CC(C)CN(CC(C)C)C[C@@H](NC(=O)[C@H]1Cc2ccc(O)cc2CN1)C(C)C [Compound 10, (3R)—N-{(1S)-1-{[Bis(2-methylpropyl)amino]methyl}-2-methylpropyl]-7-hydroxy-1,2,3,4-tetrahydroisoquinoline-3-carboxamide]
Kb (κ opioid receptor; [2]): 0.137 ± 0.024 µM

CC(C)[C@@H](CN1CCC(F)(F)CC1)NC(=O)[C@H]1Cc2ccc(O)cc2CN1 [Compound 54, (3R)—N-{[(1S)-1-[4,4-Difluoropiperidin-1-yl]methyl]-2-methylpropyl}-7-hydroxy-1,2,3,4-tetrahydroisoquinoline-3-carboxamide]
Kb (κ opioid receptor; [2]): 0.0118 ± 0.003 µM | δ/κ (selectivity for κ relative to δ) (κ opioid receptor): >254 | μ/κ (selectivity for κ relative to μ) (κ opioid receptor): 51 | Kb (μ opioid receptor; [1]): 0.604 ± 0.083 µM
